Assay results from patent US20200054541A1, “METHODS FOR REDUCING SWEAT AND/OR BODY ODOR, USING P[…] WITH AMINE AND/OR HYDROXYL GROUPS” (Henkel AG & Co. KGaA, priority 2017, published 2020).

Test system: backs of 16 test persons
Assay: In vivo test for antiperspirant activity (sauna sweat test, gravimetric)
Parameters: species or system human
Conditions: 5.0% by weight aqueous solution, 75 μL applied on the back on four consecutive days; measured 24 h after last application; about 15 minutes at 80° C. in the sauna; gravimetric vs untreated site; 16 subjects
Protocol: 1. In Vivo Test for Antiperspirant Activity
To determine the antiperspirant effect, an antiperspirant study was performed on the backs of 16 test persons. A 5.0% by weight aqueous solution of a phosphonate compound of the Formula (I) with a=b=1, R=*—(CH2)x—PO3X^+Y^+ group where x=1 and X^+=Y^+=hydrogen or Na^+ was prepared for this purpose.
75 μL of the prepared solution were applied on the back of 16 subjects on one side next to the spine. After 5 minutes, the treated sites were covered with occlusive non-adsorbent film. These non-adsorbent pads were removed after 2 hours. The compositions were each applied to the backs of the subjects for four consecutive days in the manner previously described. 24 h after the last application of the composition, absorbent pads were applied to the backs of the subjects at the sites where the compositions were previously applied. Furthermore, pads, which served as a control, were also applied on the other side of the spine at the same height. After the subjects had sweat for about 15 minutes at 80° C. in the sauna, the amount of perspiration absorbed by the pads was determined gravimetrically, wherein each composition was compared with the corresponding untreated site on the back. The sweat reduction was determined from the gravimetric determination of the amount of sweat, wherein all determined values were statistically significant.

O=P(O)(O)CN(CP(=O)(O)O)CP(=O)(O)O [phosphonate compound of Formula (I), aminotrimethylene phosphonate]
sweat reduction: 10.1%
